Consider 7 compounds from patent US5399696A, “Isoquinolinyl compounds which are intermediates” (Eli Lilly and Company, priority 1993, dated 1995).

Assay [1] has as its system AMPA receptor. Particulars: cited: Sheardown et al.; Buchan et al.; LePeillet et al.; cited from earlier work.
Assay [2] concerns AMPA receptor. As to conditions: cited: LaPeillet et al.; cited from earlier work.
The target of assay [3] is NMDA receptor. In words: Radioligand binding: displacement of [^3 H]CGS19755 from synaptosomal membranes of rat forebrain (NMDA receptor affinity). As to conditions: [^3 H]CGS19755 10 nM, mean ± standard error (n = 3), values marked ^c single experiment. The procedure:
(§1) The formula I compounds were tested for their ability to inhibit NMDA, AMPA, and kainic acid receptor binding to rat membranes in a radioligand binding assay using [^3 H]CGS19755, [^3 H]AMPA, and [^3 H]KA. For all radioligand binding assays, male Sprague-Dawley rats were used. […] Non-specific binding was determined using 10 μM L-glutamate. Samples were incubated in an ice-bath for 30 minutes, and bound ligand was separated from the free ligand by rapid filtration through WHATMAN GF/B glass fiber filters. Murphy et al, British J. Pharmacol., 95, 932-938 (1988). Kainate binding was performed using washed synaptosomal membranes from the rat forebrain as described by Simon et al. Simon et al, J. Neurochem., 26, 141-147 (1976). Tritiated kainate (5 nM) was added to 50 mM Tris-HCl buffer (pH 7.4 at 4° C.) containing 200-300 μg/ml of tissue protein. Samples were incubated for 30 minutes in an ice-bath, then rapidly filtered using a Brandel cell harvester and WHATMAN GF/C filters. Filters were washed twice with 3 ml of cold buffer. Non-specific binding was determined using 100 μM non-labeled kainate. The binding of [^3 H]AMPA (5 nM) was conducted with crude membranes of rat forebrain in the presence of 100 mM KSCN as described by Nielson et al. Nielson et al, Eur. J. Med. Chem. Chim. Ther., 21, 433-437 (1986). Non-specific binding was determined with 10 μM non-labeled AMPA. The concentration of the formula I compound that inhibited 50% binding (IC50, mean ±standard error, n=3) as calculated by linear regression of displacement data transformed to the Hill equation as described by Bennett. Bennett, Neurotransmitter Receptor Binding, 57-90 (1978).

Assay [4] concerns the target AMPA receptor. The assay can be described thus: Radioligand binding: [^3 H]AMPA binding with crude membranes of rat forebrain. How it is done: as §1
Assay [5] concerns the target kainic acid (KA) receptor. In words: Radioligand binding: tritiated kainate binding with washed synaptosomal membranes from the rat forebrain. Particulars: tritiated kainate 5 nM, pH 7.4, mean ± standard error (n = 3), values marked ^c single experiment. How it is done:
as §1

Assay [6] concerns NMDA receptor. The assay can be described thus: Antagonism of NMDA-induced depolarization of rat cortical wedges. In kind it is cell-based. Particulars: NMDA 40 μM, mean ± standard error (n = 3), read-out: IC50 NMDA, antagonism of cortical wedge depolarization. The procedure:
(§2) The depolarization of rat cortical wedges was used to test the selectivity and potency of the formula I compounds as AMPA antagonists using a technique similar to that described by Harrison and Simmonds. Harrison and Simmonds, Bri. J. Pharmacol., 84, 381-391 (1984). Generally, 4-ml aliquots of NMDA (40 μM), AMPA (40 μM), and kainate (10 μM) were superfused (2 ml/min.) on the grey matter at intervals of 15-20 minutes until stable responses were attained. The tissue was then exposed for 15 minutes to various concentrations of the formula I compounds before retesting the agonists. The IC50 values were calculated from linear regression of log dose-response curves, each point the mean of at least three observations on separate slices from more than one animal.

Assay [7] concerns AMPA receptor. The assay can be described thus: Antagonism of AMPA-induced depolarization of rat cortical wedges. As to conditions: for IC50: AMPA 40 μM, mean ± standard error (n = 3), read-out: IC50 AMPA, antagonism of cortical wedge depolarization; for selective AMPA receptor antagonism (in words): cortical wedge. In kind it is cell-based. How it is done: as §2
In assay [8] the test system is kainic acid (KA) receptor. In words: Antagonism of kainate-induced depolarization of rat cortical wedges. In kind it is cell-based. As to conditions: kainate 10 μM, mean ± standard error (n = 3). The procedure:
as §2

Where [9] appears, read: Table I, racemic, [^3 H]AMPA 5 nM, 100 mM KSCN, mean ± standard error (n = 3), values marked ^c single experiment, read-out: IC50 AMPA, receptor binding.
[10] abbreviates: text summary of Table I, racemic, read-out: selectively displaced ^3 H-AMPA with IC50 values.

Where only a bound is given, the exact number is not on record here.

In the case of `NS(=O)(=O)c1cccc2c1c([N+](=O)[O-])cc1nc(O)c(O)nc12` [NBQX, 2,3-dihydroxy-6-nitro-7-sulfamoylbenzo[f]quinoxaline], in the assay on AMPA receptor [1], the “prevention of global and focal ischemic damage (in words)” value is “effective in preventing global and focal ischemic damage”.

Take `CC1=NN=C(c2ccc(N)cc2)c2cc3c(cc2C1)OCO3` [GKYI 52466]: the “neuroprotection in rat global ischemia (in words)” value with AMPA receptor [2] is reported as “effective neuroprotective agent in rat global ischemia models”.

Turning to `O=C(O)[C@@H]1C[C@H]2C[C@H](CSc3nn[nH]n3)CC[C@H]2CN1` [Compound 25, (3S,4aR,6R,8aR)-6[2(1(2)H-Tetrazole-5-yl)-2-thiaethyl]decahydroisoquinoline-3-carboxylic Acid], the concentration for half-maximal inhibition (IC50) at NMDA receptor [3] (Table II, enantiopure) was above 100 µM; at AMPA receptor [4] (Table II, enantiopure, [^3 H]AMPA 5 nM, 100 mM KSCN, mean ± standard error (n = 3), values marked ^c single experiment, read-out: IC50 AMPA, receptor binding) it was 17.8 µM; with NMDA receptor [6] (Table IV, enantiopure) it was above 100 µM; in the assay on AMPA receptor [7] (Table IV, enantiopure), 9 ± 0.8 µM. Further, the “IC50 KA, receptor binding” value in assay [5] (Table II, enantiopure) worked out at 27.9 µM. In assay [8] (Table IV, enantiopure), the “IC50 KA, antagonism of cortical wedge depolarization” value (shortened to “IC50 KA, antagonism”) was 29.1 ± 4.3 µM.

On to `O=C(O)[C@@H]1C[C@H]2C[C@H](CCS(=O)(=O)O)CC[C@H]2CN1` (racemic) [Compound 12, (3SR,4aRS,6RS,8aRS)-6-(2-Sulfoethyl)decahydroisoquinoline-3-carboxylic Acid], for which the IC50 on NMDA receptor [3] (Table I, racemic) was 61.8 µM; at AMPA receptor [4] (setting [9]), 11.1 µM; in the assay on NMDA receptor [6] (Table III, racemic), above 100 µM; with AMPA receptor [7] (Table III, racemic), 31.4 ± 1.7 µM. In addition, the “IC50 KA, receptor binding” value in assay [5] (Table I, racemic) was above 100 µM. Also, the “IC50 KA, antagonism” value in assay [8] (Table III, racemic) worked out at 100 µM.

As to `O=C(O)[C@@H]1C[C@H]2C[C@@H](CCSc3nnn[nH]3)CC[C@H]2CN1` (racemic) [Compound 9, (3SR,4aRS,6SR,8aRS)-6-[3-(1(2)H-Tetrazole-5-yl)-3-thiaprop-1-yl]decahydroisoquinoline-3-carboxylic Acid], the IC50 is above 100 µM at NMDA receptor [3] (Table I, racemic); 56.2 ± 4.6 µM at AMPA receptor [4] (setting [9]); above 100 µM at NMDA receptor [6] (Table III, racemic); 32.2 ± 1.7 µM at AMPA receptor [7] (Table III, racemic). In addition, in assay [5] (Table I, racemic), the “IC50 KA, receptor binding” value was above 100 µM. Further, the “IC50 KA, antagonism” value in assay [8] (Table III, racemic) is above 100 µM.

Consider `O=C(O)[C@@H]1C[C@H]2C[C@@H](C(Cc3nn[nH]n3)c3ccccc3)CC[C@H]2CN1` (stereo partly drawn) [Compound 19, (3SR,4aRS,6RS,8aRS)-6-[2-(1(2)H-Tetrazole-5-yl)-1-phenylethyl]decahydroisoquinoline-3-carboxylic Acid], for which the IC50 is 13.8 µM on NMDA receptor [3] (Table I, racemic); 6.58 µM on AMPA receptor [4] (setting [9]); below 15 µM on AMPA receptor [4] (setting [10]); 100 µM with NMDA receptor [6] (Table III, racemic); 9 ± 2.8 µM with AMPA receptor [7] (Table III, racemic). Besides, in assay [5] (Table I, racemic), the “IC50 KA, receptor binding” value was above 100 µM. Further, in the assay on AMPA receptor [7] (Table III, racemic), the “selective AMPA receptor antagonism (in words)” value is given as “selective AMPA receptor antagonists”. In assay [8] (Table III, racemic), the “IC50 KA, antagonism” value turned out to be 23.6 ± 5.6 µM.

For the compound `O=C(O)[C@@H]1C[C@H]2C[C@@H](CSc3nnn[nH]3)CC[C@H]2CN1` (racemic) [Compound 4, (3SR,4aRS,6SR,8aRS)-6-[2-(1(2)H-Tetrazole-5-yl)-2-thiaethyl]decahydroisoquinoline-3-carboxylic Acid], the IC50 was 29.4 ± 6.8 µM on NMDA receptor [3] (Table I, racemic); 0.9 ± 0.14 µM at AMPA receptor [4] (setting [9]); below 15 µM at AMPA receptor [4] (setting [10]); above 100 µM at NMDA receptor [6] (Table III, racemic); 3.3 ± 0.9 µM on AMPA receptor [7] (Table III, racemic). Further, the “IC50 KA, receptor binding” value in assay [5] (Table I, racemic) is 30.1 ± 1.6 µM. Moreover, the “selective AMPA receptor antagonism (in words)” value with AMPA receptor [7] (Table III, racemic) was “selective AMPA receptor antagonists”. In addition, the “IC50 KA, antagonism” value in assay [8] (Table III, racemic) was above 100 µM.

For orientation: IC50 means the concentration that gives 50% inhibition.
